Assay results: patent US11247985B2, “Phenyl indole allosteric inhibitors of P97 ATPase” (University of Pittsburgh—Of the Commonwealth System of …, priority 2015, dated 2022)

molecular target: p97 ATPase WT (Homo sapiens (Human), UniProt P55072); experiment: p97 ADP-Glo assay; type: biochemical; conditions: Table 3; read-out: ADPGlo IC50
From the text: ADP-Glo™ (Promega Corp.) is a bioluminescent, homogeneous assay that measures ADP formed from a biochemical reactions. Because of its high sensitivity, the assay is suitable for monitoring enzyme activities at very early substrate conversions requiring very low amount of enzymes.
The ADP-Glo assay can be conducted as described in Chou, T.-F.; Bulfer, S. L.; Weihl, C.

p97 ATPase WT, sequence (P55072 whole entry): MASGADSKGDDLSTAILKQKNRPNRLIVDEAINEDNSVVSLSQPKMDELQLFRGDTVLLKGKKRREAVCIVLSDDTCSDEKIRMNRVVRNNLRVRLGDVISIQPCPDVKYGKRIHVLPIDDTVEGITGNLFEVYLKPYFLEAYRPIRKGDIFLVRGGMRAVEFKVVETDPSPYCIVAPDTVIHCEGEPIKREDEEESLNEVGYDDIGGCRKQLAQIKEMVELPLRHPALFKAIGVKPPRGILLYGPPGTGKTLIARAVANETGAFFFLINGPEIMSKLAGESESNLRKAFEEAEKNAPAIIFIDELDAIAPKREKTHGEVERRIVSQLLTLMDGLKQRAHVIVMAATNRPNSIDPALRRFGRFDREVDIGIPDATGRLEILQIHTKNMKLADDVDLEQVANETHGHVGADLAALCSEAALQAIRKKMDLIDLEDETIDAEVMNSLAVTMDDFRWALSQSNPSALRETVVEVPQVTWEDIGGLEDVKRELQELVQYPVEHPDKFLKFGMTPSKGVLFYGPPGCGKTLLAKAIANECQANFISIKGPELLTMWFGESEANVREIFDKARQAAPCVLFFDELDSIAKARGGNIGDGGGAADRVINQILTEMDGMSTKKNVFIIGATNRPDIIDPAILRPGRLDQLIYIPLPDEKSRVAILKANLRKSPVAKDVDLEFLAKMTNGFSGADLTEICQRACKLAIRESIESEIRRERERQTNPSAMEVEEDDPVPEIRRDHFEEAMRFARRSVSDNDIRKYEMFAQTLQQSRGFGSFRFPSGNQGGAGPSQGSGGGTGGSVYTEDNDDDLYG

IC50 [nM]	Structure (SMILES)
300	COCCN1CCN(CCNC2CCN(c3cccc(-c4cc5ccccc5[nH]4)c3)CC2)CC1
540	CC(C)N1CCN(CCNC2CCN(c3cccc(-c4cc5ccc(F)cc5[nH]4)c3)CC2)CC1
210	CN1CCN(CCCNC2CCN(c3cccc(-c4cc5ccccc5[nH]4)c3)CC2)CC1
630	CNC(=O)CCNC1CCN(c2cccc(-c3cc4cc(F)ccc4[nH]3)c2)CC1
170	c1cc(-c2cc3ccccc3[nH]2)cc(N2CCC(NCCN3CCN(CC4CC4)CC3)CC2)c1
640	CCC(C)N1CCN(CCCNC2CCN(c3cccc(-c4cc5ccccc5[nH]4)c3)CC2)CC1 (centres unmarked)
1700	CCOC(=O)Nc1cccc(N2CCC(NCCN3CCN(C(C)C)CC3)CC2)c1
15	CN1CCN(C2(CNC3CCN(c4cccc(-c5cc6cc(F)ccc6[nH]5)c4)CC3)CCC2)CC1
1800	NC1CCN(c2cccc(-c3cc4ccccc4[nH]3)c2)CC1
15	CC(C)N1CCN(C2(CNC3CCN(c4cccc(-c5cc6cc(C#N)ccc6[nH]5)c4)CC3)CCC2)CC1
1900	CC(C)N1CCN(CCNC2CCN(c3cccc(-c4cc5ccccc5[nH]4)c3)CC2)C(=O)C1
25	Cc1ccc(N2CCC(NCCN3CCN(C(C)C)CC3)CC2)cc1-c1cc2cc(F)ccc2[nH]1
2200	Cn1ncnc1CCNC1CCN(c2cccc(-c3cc4cc(F)c(F)cc4[nH]3)c2)CC1
26	CC(C)N1CCN(CCNC2CCN(c3cccc(-c4cc5cc(C#N)ccc5[nH]4)c3)CC2)CC1
2400	CC(C)(C)OC(=O)N1CCN(CCNC2CCN(c3cccc(-c4cc5ccccc5[nH]4)c3)CC2)CC1
26	CN1CCN(C2(CNC3CCN(c4cccc(-c5cc6cc(C#N)ccc6[nH]5)c4)CC3)CCC2)CC1
2400	FC1(F)CCN(CCNC2CCN(c3cccc(-c4cc5ccccc5[nH]4)c3)CC2)CC1
27	CC(C)N1CCN(CCNC2CCN(c3cccc(-c4cc5cc(F)ccc5[nH]4)c3)CC2)CC1
3300	CC(C)N1CCN(CCNC2CCN(c3cccc(-c4cc5cccc(F)c5[nH]4)c3)CC2)CC1
3700	CC(C)N1CCN(CCNC2CCN(c3cccc(-c4cc5cc(OC(F)(F)F)ccc5[nH]4)c3)CC2)CC1
41	CC(C)N1CCN(C2(CNC3CCN(c4cccc(-c5cc6cc(F)ccc6[nH]5)c4)CC3)COC2)CC1
3800	CC(C)N1CCN(CCNC2CCN(c3cccc(-c4cc5cnccc5[nH]4)c3)CC2)CC1

IC50 [nM]	Structure (SMILES)
3800	CC(C)N1CCN(C2(CNC(=O)C3CCN(c4cccc(-c5cc6cc(F)ccc6[nH]5)c4)CC3)CCC2)CC1
49	CC(C)N1CCC(NC2CCN(c3cccc(-c4cc5cc(F)ccc5[nH]4)c3)CC2)CC1
3900	CC(C)N1CCC(NC(=O)C2CCN(c3cccc(-c4cc5cc(F)ccc5[nH]4)c3)CC2)CC1
82	Cc1ccc(N2CCC(NC3CCN(C)CC3)CC2)cc1-c1cc2cc(F)ccc2[nH]1
86	Cc1ccc(N2CCC(NCCN3CCN(C(C)C)CC3)CC2)cc1-c1cc2cc(C#N)ccc2[nH]1
4300	CC(C)N1CCN(C2CCN(c3cccc(-c4cc5cc(F)ccc5[nH]4)c3)CC2)CC1
87	CC(C)N1CCN(CCNC2CCN(c3cccc(-c4cc5cc(C(N)=O)ccc5[nH]4)c3)CC2)CC1
4500	Cc1ccc(N2CCC(NCCc3ncnn3C)CC2)cc1-c1cc2ccccc2[nH]1
92	CC(C)N1CCC(NC2CCN(c3cccc(-c4cc5cc(Cl)ccc5[nH]4)c3)CC2)CC1
4600	CC(C)N1CCN(CCNC2CCN(c3cccc(-c4cc5ccc([N+](=O)[O-])cc5[nH]4)c3)CC2)CC1
100	CC(C)N1CCN(CCNC2CCN(c3cccc(-c4cc5cc(O)ccc5[nH]4)c3)CC2)CC1
100	Cc1ccc(N2CCC(NCC3(N4CCN(C(C)C)CC4)CCC3)CC2)cc1-c1cc2cc(C#N)ccc2[nH]1
5100	CC(C)N1CCN(CCNC2CCN(c3cccc(-c4ccc5ccccc5c4)c3)CC2)CC1
110	CN1CCN(C2(CNC3CCN(c4cccc(-c5cc6cc(Cl)ccc6[nH]5)c4)CC3)CCC2)CC1
5200	CC(C)N1CCN(CCNC2CCN(c3cccc(-c4cc5ccc(N)cc5[nH]4)c3)CC2)CC1
110	CC(C)N1CCN(C2(CNC3CCN(c4cccc(-c5cc6cc(C#N)ccc6[nH]5)c4)CC3)COC2)CC1
5300	CC(C)N1CCN(CCNC2CCN(c3cccc(-c4cc5cc(F)cnc5[nH]4)c3)CC2)CC1
110	Cc1ccc(N2CCC(NC3CCN(C(C)C)CC3)CC2)cc1-c1cc2cc(C#N)ccc2[nH]1
5600	[N-]=[N+]=Nc1ccc(NCCNC2CCN(c3cccc(-c4cc5ccccc5[nH]4)c3)CC2)cc1
110	CCC(C)N1CCN(CCNC2CCN(c3cccc(-c4cc5ccccc5[nH]4)c3)CC2)CC1 (centres unmarked)
5800	CC(C)N1CCN(CC=C2CCN(c3cccc(-c4cc5ccccc5[nH]4)c3)CC2)CC1
120	CC(C)N1CCN(CCNC2CCN(c3cccc(-c4cc5cc(Cl)ccc5[nH]4)c3)CC2)CC1

IC50 [nM]	Structure (SMILES)
6000	CC(C)N1CCN(CCC2CCN(c3cccc(-c4cc5ccccc5[nH]4)c3)CC2)CC1
120	CC(C)N1CCN(C(=O)CCNC2CCN(c3cccc(-c4cc5cc(F)ccc5[nH]4)c3)CC2)CC1
130	CC(C)N1CCC(NC2CCN(c3cccc(-c4cc5ccccc5[nH]4)c3)CC2)CC1
6100	CC(C)N1CCN(CCNC2CCN(c3cccc(-c4cc5ccc(C#N)cc5[nH]4)c3)CC2)CC1
130	CN1CCC(NC2CCN(c3cccc(-c4cc5cc(C#N)ccc5[nH]4)c3)CC2)CC1
6200	CC(C)[C@H]1CC[C@H](NC2CCN(c3cccc(-c4cc5cc(C#N)ccc5[nH]4)c3)CC2)CC1
130	CC(C)N1CCN(C2(CNC3CCN(c4cccc(-c5cc6cc(F)ccc6[nH]5)c4)CC3)CCC2)CC1
7100	CC(C)N1CCN(CCNC2CCN(c3cccc(-c4nc5ccccc5n4-c4ccc(C(c5ccccc5)c5ccccc5)cc4)c3)CC2)CC1
130	CC(C)(C)N1CCN(CCNC2CCN(c3cccc(-c4cc5ccccc5[nH]4)c3)CC2)CC1
7340	CC(C)N1CCN(CCNC(=O)CC2CCN(c3cccc(-c4cc5ccccc5[nH]4)c3)CC2)CC1
140	CN1CCN(C2(CNC3CCN(c4cccc(-c5cc6ccccc6[nH]5)c4)CC3)CCC2)CC1
7500	CC(C)N1CCC(NC2CCN(c3cccc(-c4cc5cc(S(=O)(=O)NCc6ccccc6)ccc5[nH]4)c3)CC2)CC1
140	CC(C)N1CCN(C(=O)CCNC2CCN(c3cccc(-c4cc5ccccc5[nH]4)c3)CC2)CC1
7580	CC(C)N1CCN(CCNC(=O)C=C2CCN(c3cccc(-c4cc5ccccc5[nH]4)c3)CC2)CC1
140	Cc1ccc(N2CCC(NCCN3CCN(C(C)C)CC3)CC2)cc1-c1cc2ccccc2[nH]1
7600	CC(C)N1CCN(CC(=O)NC2CCN(c3cccc(-c4cc5ccccc5[nH]4)c3)CC2)CC1
150	CC(C)N1CCCN(CCNC2CCN(c3cccc(-c4cc5ccccc5[nH]4)c3)CC2)CC1
8000	CC(C)N1CCN(CCNC2CCN(c3cncc(-c4cc5ccccc5[nH]4)c3)CC2)CC1
150	CN1CCN(C(=O)CCNC2CCN(c3cccc(-c4cc5cc(F)ccc5[nH]4)c3)CC2)CC1
8600	CC(C)N1CCC(NC2CCN(c3cccc(-c4cc5cc(S(N)(=O)=O)ccc5[nH]4)c3)CC2)CC1

Structure (SMILES)	IC50 [nM]
CC(C)N1CCN(CCNC2CCN(c3cccc(-c4cc5cc(C(F)(F)F)ccc5[nH]4)c3)CC2)CC1	6000
